Data as given in article PMC11253633, “Robust leishmanicidal upshot of some new diphenyl triazine-based molecules” (RSC Advances, 2024).
Entries after “also recorded” stand apart in the source; their conditions may differ.

Legend:
[1] = test system: Human macrophage THP-1 cell line; assay: Cytotoxicity assay on THP-1 cell line (MTT); assay type: cell-based; conditions: 3.125–100 μM
Description: The cell lines were incubated for 48 h at 37 °C in a CO2 incubator with increasing concentrations of test compounds and viability was ascertained. Each point or bar corresponds to the mean ± SEM of triplicate samples and is representative of one of three independent experiments.
THP-1 human monocytic cells were grown at 37 °C in medium RPMI-1640 (pH 7.4, Sigma-Aldrich, St. Louis, MO, USA) supplemented with 10% heat-inactivated FBS for 48 to 72 h in a humidified atmosphere of 5% CO2 and sub-cultured in fresh RPMI-1640 medium at an average density 2 × 10^5 cells per mL (Sharma et al. 2023).[30]
Human macrophage THP-1 cell line of 0.5 × 10^6 cells per mL seeded in RPMI-1640 medium (Sigma-Aldrich, USA) supplemented with 10% FBS (GIBCO) in presence of 5% CO2 at 37 °C in triplicate in 96 well culture plate. The cells were treated with two-fold serially diluted concentrations (100–3.125 μM) of the candidate molecules for 72 h. The IC50 was calculated using MTT assay (Sharma et al. 2023).[30]

[2] = test system: L. donovani promastigotes; assay: Determination of promastigote cellular morphology (light microscopy); assay type: cell-based, Leishmania donovani; conditions: 25, 50 and 100 μM, 72 h, light microscopy 40×
Description: For the evident of morphological changes, the promastigotes (Fig. 3 (C to L)) were incubated in presence of compound T7, T4 and control Ampho B with the different concentration 25 μM, 50 μM, 100 μM shown in (Fig. 3C to L) were analysed by light microscopy (40×magnification) compared to untreated cells (Fig. 4A).
Fig. 4 Morphological Analysis of promastigote stage cells treated with compound T4 and MTF, compared to the untreated control (A) and DMSO treated control (B). Exponential-phase promastigotes (1 × 10^6 cells per mL) were incubated with 25 μm, 50 μm and 100 μm and analysed by light microscopy (40× magnification). (A) Untreated control (B) DMSO Treated cells (C–E) Ampho B, (F–H) T4 and T7 (I–K) at 25, 50, and 100 μM respectively. Scale bar in all is 10 μm.
Variations in the cellular morphology of Leishmania parasites due to the treatment with compounds T4 and T7 was detected microscopically. Briefly, the promastigotes (1× 10^6 cells per mL) were incubated in the absence or presence of test compounds and MTF and AmphoB for 72 h with different concentrations and observed under 40× objective of a phase-contrast microscope. […] Data were recorded by using NIS-Elements imaging software.[32]

L. donovani amastigotes = assay: Anti-amastigote assay in infected THP-1 macrophages (Giemsa); assay type: cell-based, Leishmania donovani; conditions: for IC50: infected THP-1 macrophages, 72 h
Description: To evaluate the anti-leishmanial effect of the compound T4 and T7 on intracellular L. donovani parasites, macrophage was infected with stationary -phase L. donovani for 6 h. The cells were then washed with saline to remove any non-internalised parasites. To assess the effect of compounds T4 and T7 on intracellular parasites at early stages of infection, macrophages were subsequently treated with T4 and T7 at concentrations of 100, 50, 25, 12.5, or 6.25 μM (refer to Table 3 and Fig. 7) for 6, 24, or 48 hours.
THP-1 cells (5 × 10^5 cells per mL) were cultivated in RPMI-1640 media (Roswell Park Memorial Institute 1640) (Sigma-Aldrich, USA), supplemented with 10% fetal calf serum and maintained at 37 °C with 5% CO2 using phorbol ester as the inducer. These cells were added on circular coverslips (1 × 10^6 cells per mL). Promastigotes of L. donovani were introduced at 1 : 20 ratio. Treatment of the samples was carried out at doses of 100, 50, 25, 12.5, 6.25 and 3.125 μM/72 h. After being taken off, the coverslips were stained with Giemsa. The rate of macrophage infection was then ascertained.

[3] = test system: L. donovani promastigotes; assay: Dose-dependent anti-promastigote activity and determination of IC50 (MTT); assay type: cell-based; conditions: Leishmania donovani, 72 h, 3 days at 26 °C
Description: MTF was used as a standard antileishmanial drug control. The cell viability was evaluated (by MTT Assay) and the mean percentage viability was calculated as follows: Mean cell number of treated parasites/mean cell number of untreated parasites × 100. The 50 and 90% inhibitory concentration (IC50) i.e., the concentration of drugs that decreased the cell growth by 50 and 90% respectively, was determined by graphical extrapolation after plotting the graph of percentage viability vs. concentration of the drug.[31]
Parasite viability was not affected by DMSO (0.2%, data not shown) used as solvent control.[33]

[4] = test system: L. donovani promastigotes; assay: Anti-leishmanial screening against L. donovani promastigotes at a single concentration (MTT); assay type: cell-based, Leishmania donovani; conditions: 72 h at 26 °C, MTT
Description: Each candidate was evaluated for its in vitro activity against reference strain (MHOM/IN/83/AG83) of extracellular promastigotes and intracellular amastigotes of L. donovani.
Promastigotes were routinely cultured at 26 °C in medium M199 supplemented with 10% heat inactivated fetal bovine serum (FBS, Gibco Laboratories, Mumbai, India), penicillin 100 (IU mL^−1), streptomycin (100 μg mL^−1). Log phase promastigotes were sub-cultured every 72–96 h, the inoculum being 2 × 10^6 cells per mL.[29]
The triazin hybrids series was evaluated for their antileishmanial ability against L. donovani promastigotes in vitro. Promastigotes of L. donovani (1× 10^6 cells per mL) in M199 medium were incubated at 26 °C for 72 h with each compound at a concentration of 100 μM. Miltefosine (MTF) was used as a reference drug, 0.2% DMSO as solvent control. Parasites with media alone were taken as control. Parasite viability was achieved by MTT assay after 72 h (Sharma et al. 2023).[30]

L. amazonensis = test system: L. amazonensis; parameters: method as in PMID 30817917; conditions: cited from earlier work
L. infantum = test system: L. infantum; parameters: method as in PMID 30817917; conditions: cited from earlier work
promastigote = test system: promastigote; parameters: method as in PMID 29702355; conditions: read-out: IC50 against promastigote; cited from earlier work
amastigote = test system: amastigote; parameters: method as in PMID 29702355; conditions: read-out: IC50 against amastigote; cited from earlier work

In the case of COc1ccc(C(=O)CCSc2nnc(-c3ccccc3)c(-c3ccccc3)n2)cc1OC [T4, 1-(3,4-Dimethoxyphenyl)-3-((5,6-diphenyl-1,2,4-triazin-3-yl)thio)propan-1-one], the “Cytotoxicity on THP-1 human macrophages (in words)” value [1] is reported as “nontoxic; also recorded: no adverse effects; also recorded: Absence of adverse toxicity”, the “Cellular morphological alterations in promastigotes (in words)” value [2] is reported as “loss of flagella” and the “Percentage reduction of parasites (amastigote)” value (“Percentage reduction” for short) (L. donovani amastigotes; 6.25 μM) is reported as 66%. For the same molecule, the “Percentage reduction” value (L. donovani amastigotes; 12.5 μM) was 68.80%, the “Percentage reduction” value (L. donovani amastigotes; 25 μM) was 70% and the “Percentage reduction” value (L. donovani amastigotes; 50 μM) was 74%. For the same molecule, the “Percentage reduction” value (L. donovani amastigotes; 100 μM) was 78.0%, the “Inhibitory activity against amastigotes (in words)” value (L. donovani amastigotes; 100–6.25 μM, infected macrophages) was “good inhibitory activity; also recorded: capable of inhibiting the growth” and the IC50 (L. donovani amastigotes; Leishmania donovani, THP-1, 72 h) was 5.18 µM. The IC50 (L. donovani amastigotes) was 7.19 µM, the melting point was 210 to 212 °C and the IC50 [3] was 1.07 µM. The “% Inhibition of L. donovani promastigotes” value ([4]; 100 μM) was 99.67% and the inhibition at 100 µM ([4]; Leishmania donovani, 72 h) was greater than 90%.
For CN(C)c1ccnc2cc(Cl)ccc12 [7-chloro-N, N-dimethylquinolin-4-amine], the “selectivity index against the axenic amastigotes” value (L. amazonensis; L. amazonensis axenic amastigotes) is given as 74.3, the “selectivity index against the promastigotes” value (L. amazonensis; L. amazonensis promastigotes) is given as 86.4 and the “selectivity index against the axenic amastigotes” value (L. infantum; L. infantum axenic amastigotes) is given as 137.6. The “selectivity index against the promastigotes” value (L. infantum; L. infantum promastigotes) was 154.6.
For Clc1cc(Cl)ncn1 [compound 5], the IC50 (promastigote) is listed as less than 25 µM and the IC50 (amastigote) is listed as less than 25 µM.
